Like-named read-outs stand apart in the source and are kept apart here.
Columns and labels:
Format in all cases: cell-based
[1] = test system: Septoria tritici; assay: Activity against leaf blotch on wheat caused by Septoria tritici in the microtiter test (Septtr); settings: single active compound, day 7 after inoculation
[2] = test system: Phytophthora infestans; settings: single active compound, 7 days after inoculation
[3] = test system: Fusarium culmorum; assay: Activity against Fusarium culmorum in the microtiter test (Fusacu); settings: single active compound, day 7 after inoculation
[4] = test system: Pyrenophora teres; assay: Activity against Pyrenophora teres in the microtiter test (Pyrnte); settings: single active compound, day 7 after inoculation

In the case of `N#Cc1c(Cl)c(Cl)c(Cl)c(C#N)c1Cl` [Chlorothalonil, 2,4,5,6-tetrachloroisophthalonitrile], the “Observed efficacy [%]” value ([1]; 0.25 ppm) was 46%.
In the case of `Cc1cc(C2CC2)nc(Nc2ccccc2)n1` [Cyprodinil, (4-cyclopropyl-6-methylpyrimidin-2-yl)phenylamine], the “Observed efficacy [%]” value ([1]; 1 ppm) was 13%.
For `CCO[PH](=O)O` [Fosetyl-Al], the “Observed efficacy [%]” value ([2]; 16 ppm) was 35%.
In the case of `C=CCSC(=O)n1c(N)c(-c2ccccc2C)c(=O)n1C(C)C` [I.1, 5-amino-2-isopropyl-3-oxo-4-o-tolyl-2,3-dihydro-pyrazole-1-carbothioic acid ally ester], the “Observed efficacy [%]” value ([1]; 4 ppm) was 37%, the “Observed efficacy [%]” value ([2]; 16 ppm) was 16% and the “Observed efficacy [%]” value ([2]; 63 ppm) was 37%. For the same compound, the “Observed efficacy [%]” value ([3]; 63 ppm) was 14% and the “Observed efficacy [%]” value ([4]; 1 ppm) was 34%.
For `COC=C(C(=O)OC)c1ccccc1COc1cccc(C(F)(F)F)n1` [Picoxystrobin, methyl 3-methoxy-2-[2-(6-trifluoromethylpyridin-2-yloxymethyl)phenyl]-acrylate], the “Observed efficacy [%]” value ([4]; 0.016 ppm) was 31%.
`COC(=O)N(OC)c1ccccc1COc1ccn(-c2ccc(Cl)cc2)n1` [Pyraclostrobin, methyl N-{2-[1-(4-chlorophenyl)-1H-pyrazol-3-yloxymethyl]phenyl}(N-methoxy)carbamate] was tested, and the “Observed efficacy [%]” value ([3]; 0.25 ppm) was 5%.
In the case of “zinc propylenebis(dithiocarbamate) polymer [Propineb]”, the “Observed efficacy [%]” value ([2]; 1 ppm) was 21%.
